Assay results from patent EP2548876A1, “New CRTh2 antagonists” (Almirall, S.A., priority 2011, dated 2013).

Molecular target: T1, CRTh2 receptor (Homo sapiens, UniProt Q9Y5Y4)
T1 construct: expressed in transfected cells; host or cells: CHO.K1 cells (membranes)
T1 sequence (Q9Y5Y4 1-395): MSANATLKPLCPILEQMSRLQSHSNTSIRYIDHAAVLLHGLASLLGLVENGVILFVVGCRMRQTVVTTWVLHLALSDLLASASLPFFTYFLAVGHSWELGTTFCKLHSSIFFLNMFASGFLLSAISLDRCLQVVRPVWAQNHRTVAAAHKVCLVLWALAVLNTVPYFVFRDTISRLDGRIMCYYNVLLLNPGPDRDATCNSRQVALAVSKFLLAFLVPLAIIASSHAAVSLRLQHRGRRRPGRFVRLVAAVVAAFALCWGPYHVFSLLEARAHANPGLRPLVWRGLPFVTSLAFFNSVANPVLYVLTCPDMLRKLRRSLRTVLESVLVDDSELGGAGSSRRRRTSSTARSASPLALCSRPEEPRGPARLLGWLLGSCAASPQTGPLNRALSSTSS
Test: CRTh2 GTPγS antagonism binding assay
Type: biochemical
Conditions: membranes from CHO.K1 cells stably overexpressing the CRTh2 receptor; PGD2 at 50 nM (EC80); 0.1 nM [35S]-GTPγS; 1 h pre-incubation with compound, then 2 h at room temperature; read-out: GTPγ Binding
Method: CRTh2 GTPγS antagonism binding assay
The assay is performed using membranes obtained from CHO.K1 cells stably overexpressing the CRTh2 receptor and [^35S]-GTPγS as radioligand. Assay is performed pre-incubating 4-8 µg of membranes per well with the compound to be tested for 1 h, followed by incubation with PGD2 at 50 nM (EC80), 0.1 nM [^35S]-GTPγS in incubation buffer (20 mM HEPES, 10 mM MgCl2, 100 mM NaCl, 10 µM GDP, 10 µg/ml Saponine and 0.2% BSA) for 2 h at room temperature. The reaction is terminated by filtering in GF/C plates pre-treated with 20 mM HEPES, 10 mM MgCl2, 100 mM NaCl and washing 6 times with wash buffer (20 mM NaH2PO4, 20 mM Na2HPO4). After washing, plates are dried and scintillation buffer Optiphase added. The radioactivity retained in the filter is counted using a Microbeta liquid scintillation counter. Compound IC50 are determined using Excel XL-fit for calculations.

Row | Structure (SMILES) | IC50
1 | CCN(Cc1ccccc1-n1cc(CC(=O)O)c2ccc(C)nc21)C(=O)C1CC1 [Example 17, [1-(2-{[(Cyclopropylcarbonyl)(ethyl)amino]methyl}phenyl)-6-methyl-1H-pyrrolo[2,3-b]pyridin-3-yl]acetic acid] | 5 nM
2 | CCN(Cc1cc(F)ccc1-c1cn(CC(=O)O)c2cccnc12)C(=O)C1CC1 [Example 2, [3-(2-{[(Cyclopropylcarbonyl)(ethyl)amino]methyl}-4-fluorophenyl)-1H-pyrrolo[3,2-b]pyridin-1-yl]acetic acid] | 10 nM
3 | CCN(Cc1cc(C(F)(F)F)ccc1-n1cc(CC(=O)O)c2cccnc21)C(=O)C1CC1 [Example 12, {1-[2-{[(Cyclopropylcarbonyl)(ethyl)amino]methyl}-4-(trifluoromethyl)phenyl]-1H-pyrrolo[2,3-b]pyridin-3-yl}acetic acid] | 9 nM
4 | Cc1ccc2c(n1)c(-c1ccc(C(F)(F)F)cc1CN(Cc1ccccc1)C(=O)C1CC1)cn2CC(=O)O [Example 9, {3-[2-{[Benzyl(cyclopropylcarbonyl)amino]methyl}-4-(trifluoromethyl)phenyl]-5-methyl-1H-pyrrolo[3,2-b]pyridin-1-yl}acetic acid] | 14 nM
5 | CCN(Cc1cc(C(F)(F)F)ccc1-c1cn(C(C)C(=O)O)c2ccc(C)nc12)C(=O)C1CC1 (stereo not drawn) [Example 6, 2-{3-[2-{[(Cyclopropylcarbonyl)(ethyl)amino]methyl}-4-(trifluoromethyl)phenyl]-5-methyl-1H-pyrrolo[3,2-b]pyridin-1-yl}propanoic acid] | 18 nM
6 | CCN(Cc1cc(F)ccc1-n1cc(CC(=O)O)c2ccc(C)nc21)C(=O)C1CC1 [Example 16, [1-(2-{[(Cyclopropylcarbonyl)(ethyl)amino]methyl}-4-fluorophenyl)-6-methyl-1H-pyrrolo[2,3-b]pyridin-3-yl]acetic acid] | 5 nM
7 | CCN(Cc1cc(C(F)(F)F)ccc1-c1cn(CC(=O)O)c2ccc(C)nc12)C(=O)C1CC1 [Example 3, {3-[2-{[(Cyclopropylcarbonyl)(ethyl)amino]methyl}-4-(trifluoromethyl)phenyl]-5-methyl-1H-pyrrolo[3,2-b]pyridin-1-yl}acetic acid] | 16 nM
8 | CCN(Cc1cc(C(F)(F)F)ccc1-c1cn(CC(=O)O)c2cccnc12)C(=O)C1CC1 [Example 1, {3-[2-{[(Cyclopropylcarbonyl)(ethyl)amino]methyl}-4-(trifluoromethyl)phenyl]-1H-pyrrolo[3,2-b]pyridin-1-yl}acetic acid] | 15 nM
9 | CCN(Cc1cc(F)ccc1-c1cn(CC(=O)O)c2ccc(C(F)(F)F)nc12)C(=O)C1CC1 [Example 7, [3-(2-{[(Cyclopropylcarbonyl)(ethyl)amino]methyl}-4-fluorophenyl)-5-(trifluoromethyl)-1H-pyrrolo[3,2-b]pyridin-1-yl]acetic acid] | 11 nM
10 | CCN(Cc1cc(F)ccc1-n1cc(CC(=O)O)c2cccnc21)C(=O)C1CC1 [Example 13, [1-(2-{[(Cyclopropylcarbonyl)(ethyl)amino]methyl}-4-fluorophenyl)-1H-pyrrolo[2,3-b]pyridin-3-yl]acetic acid] | 17 nM

Continued, values first:

Row | IC50 | Structure (SMILES)
11 | 20 nM | CCN(Cc1cc(F)ccc1-c1cc(CC(=O)O)n2cccnc12)C(=O)C1CC1 [Example 21, [8-(2-{[(Cyclopropylcarbonyl)(ethyl)amino]methyl}-4-fluorophenyl)pyrrolo[1,2-a]pyrimidin-6-yl]acetic acid]
12 | 13 nM | CCN(Cc1cc(C(F)(F)F)ccc1-c1cc(CC(=O)O)n2cccnc12)C(=O)C1CC1 [Example 20, {8-[2-{[(Cyclopropylcarbonyl)(ethyl)amino]methyl}-4-(trifluoromethyl)phenyl]pyrrolo[1,2-a]pyrimidin-6-yl}acetic acid]
13 | 7 nM | CCN(Cc1cc(C(F)(F)F)ccc1-c1cc(CC(=O)O)n2ccc(C)nc12)C(=O)C1CC1 [Example 23, {8-[2-{[(Cyclopropylcarbonyl)(ethyl)amino]methyl}-4-(trifluoromethyl)phenyl]-2-methylpyrrolo[1,2-a]pyrimidin-6-yl}acetic acid]
14 | 32 nM | CCN(Cc1cc(C(F)(F)F)ccc1-c1cc(CC(=O)O)c2ccncn12)C(=O)C1CC1 [Example 26, {7-[2-{[(Cyclopropylcarbonyl)(ethyl)amino]methyl}-4-(trifluoromethyl)phenyl]pyrrolo[1,2-c]pyrimidin-5-yl}acetic acid]
15 | 6 nM | CCN(Cc1cc(C(F)(F)F)ccc1-c1cc(CC(=O)O)n2ccc(C(F)(F)F)nc12)C(=O)C1CC1 [Example 22, [8-[2-{[(Cyclopropylcarbonyl)(ethyl)amino]methyl}-4-(trifluoromethyl)phenyl]-2-(trifluoromethyl)pyrrolo[1,2-a]pyrimidin-6-yl]acetic acid]
